{
  "source": "patent US8343923B2",
  "about": "“Use of notch signaling regulators for modulating osteogenesis” (Washington University, priority 2007, dated 2013)",
  "assay_type_in_all_cases": "cell-based, mouse",
  "key": {"wild type BMSCs": {"system": "wild type BMSCs", "experiment": "AP quantitative assay for high-density wild type BMSCs cultures in osteogenic medium", "settings": "wild type BMSCs at higher density under osteogenic conditions, with versus without DAPT; p<0.05", "experimental": "FIG. 8G is representative of “type II” CFU-Fs stained for AP. FIG. 8H illustrates an AP quantitative assay for high-density wild type BMSCs cultures in osteogenic medium with or without DAPT. (*: p<0.05).\nCell cultures. Bone marrow harvests and high-density cultures were done as described in the art. For CFU-F assays, single-cell suspension of nucleated bone marrow cells were seeded at 3×10^6 on T25 flasks and cultured in DMEM (Invitrogen) containing 20% lot-selected FBS (Hyclone) and 1-Thioglycerol (Sigma) for 11-14 days without change of medium. For CFU-F assays, colonies with more than 50 small, round or spindle-shaped cells in direct contact with each other were scored as “type I” CFU-Fs. Clusters with more than 100 cells including large cells with multiple processes were counted as “type II” CFU-Fs. Differentiation of BMSCs was induced by either osteogenic (50 μg/ml ascorbic acid, 50 mM β-glycerol-2-phosphate) or adipogenic (0.5 μMIBMX, 60 μM indomethacine, 0.5 μM hydrocortisone) DMEM containing 10% FBS (Atlas). Primary osteoblasts were isolated from long bones by incubating cleaned small bone chips to allow cells to migrate onto culture dishes. NICD was detected by Western analyses using a specific antibody (Cell Signaling).\nIt was also assessed whether Notch signaling could directly control bone marrow mesenchymal progenitors and their differentiation. […]"}, "[1]": {"system": "bone marrow mesenchymal progenitors (CFU-Fs) in wild type BMSCs", "experiment": "CFU-F assay of wild type BMSCs in the presence or absence of DAPT", "excerpt": "FIG. 8B depicts AP staining after 8 days in osteogenic medium following CFU-F assays. FIG. 8C illustrates AP quantitative assay for high-density BMSCs cultures in osteogenic medium. FIG. 8D is phase-contrast pictures of high-density BMSCs cultured in adipogenic medium. Note the lipid droplets in wild type cells. […] The arrow denotes a typical “type I” CFU-F. Cell cultures. Bone marrow harvests and high-density cultures were done as described in the art. For CFU-F assays, single-cell suspension of nucleated bone marrow cells were seeded at 3×10^6 on T25 flasks and cultured in DMEM (Invitrogen) containing 20% lot-selected FBS (Hyclone) and 1-Thioglycerol (Sigma) for 11-14 days without change of medium. For CFU-F assays, colonies with more than 50 small, round or spindle-shaped cells in direct contact with each other were scored as “type I” CFU-Fs. Clusters with more than 100 cells including large cells with multiple processes were counted as “type II” CFU-Fs. Differentiation of BMSCs was induced by either osteogenic (50 μg/ml ascorbic acid, 50 mM β-glycerol-2-phosphate) or adipogenic (0.5 μMIBMX, 60 μM indomethacine, 0.5 μM hydrocortisone) DMEM containing 10% FBS (Atlas). […] NICD was detected by Western analyses using a specific antibody (Cell Signaling). […] It was also assessed whether Notch signaling could directly control bone marrow mesenchymal progenitors and their differentiation. […]"}, "[2]": {"system": "\"type II\" CFU-Fs from wild type BMSCs", "experiment": "AP staining immediately following CFU-F assays", "settings": "assayed directly for AP activity without further culture in osteogenic conditions; DAPT-treated samples", "experimental": "FIG. 8G is representative of “type II” CFU-Fs stained for AP. FIG. 8H illustrates an AP quantitative assay for high-density wild type BMSCs cultures in osteogenic medium with or without DAPT. (*: p<0.05). Cell cultures. Bone marrow harvests and high-density cultures were done as described in the art. For CFU-F assays, single-cell suspension of nucleated bone marrow cells were seeded at 3×10^6 on T25 flasks and cultured in DMEM (Invitrogen) containing 20% lot-selected FBS (Hyclone) and 1-Thioglycerol (Sigma) for 11-14 days without change of medium. For CFU-F assays, colonies with more than 50 small, round or spindle-shaped cells in direct contact with each other were scored as “type I” CFU-Fs. Clusters with more than 100 cells including large cells with multiple processes were counted as “type II” CFU-Fs. Differentiation of BMSCs was induced by either osteogenic (50 μg/ml ascorbic acid, 50 mM β-glycerol-2-phosphate) or adipogenic (0.5 μMIBMX, 60 μM indomethacine, 0.5 μM hydrocortisone) DMEM containing 10% FBS (Atlas). Primary osteoblasts were isolated from long bones by incubating cleaned small bone chips to allow cells to migrate onto culture dishes. NICD was detected by Western analyses using a specific antibody (Cell Signaling). It was also assessed whether Notch signaling could directly control bone marrow mesenchymal progenitors and their differentiation. […]"}},
  "data": [
    {"compound": "C[C@H](NC(=O)Cc1cc(F)cc(F)c1)C(=O)N[C@H](C(=O)OC(C)(C)C)c1ccccc1", "note": "[DAPT, N—[N-(3,5-Difluorophenacetyl)-L-alanyl]-S-phenylglycine t-butyl ester]", "values": [
      {"measurement": "AP expression", "setting": "wild type BMSCs", "value": "significantly increased"},
      {"measurement": "number of \"type II\" CFU-Fs", "setting": "[1]; 1 μM DAPT, number not altered versus untreated", "value": "~20", "unit": "per 106 marrow cells"},
      {"measurement": "effect on \"type I\" CFU-Fs", "setting": "[1]; low-density culture, 1 μM DAPT (FIG. 8 legend)", "value": "completely eliminated"},
      {"measurement": "AP staining of \"type II\" CFU-Fs", "setting": "[2]", "value": "nearly all “type II” CFU-Fs from the DAPT-treated samples stained strongly positive"}
    ]}
  ]
}
